The record followed here is US7094413B2, “Combined therapy for treatment of HIV infection” (priority 2002, dated 2006).

Assay [1] has as its system T cells in gut associated lymphoid tissue (GALT) and blood. Description: Flow cytometry of T cells from jejunal biopsies (GALT) and peripheral blood of SIV-infected rhesus macaques. It counts as in vivo, rhesus macaques (Macaca mulatta). The text has this:
(§1) Fifteen (15) colony bred rhesus macaques (Macaca mulatta) from the California Regional Primate Research Center, Davis, were used in this study. Animals were housed in accordance with The American Association for Accredition of Laboratory Animal Care guidelines. All animals were seronegative for simian retrovirus (SRV-1) and simian T cell leukemia virus type-1 (STLV-1). Rhesus macaques were intravenously (I.V.) infected with 100 animal infectious doses of uncloned pathogenic SIVmac251. This viral inoculum has been previously shown to cause persistent viremia and infection Of multiple tissues in vivo, leading to fatal AIDS-like disease (Mandell et al 1995). The animals were divided into the following groups • 1. Untreated Controls, necropsy at week 10 (n=3) • 2. Untreated Controls, necropsy at week 26 (n=3) • 3 PMPA treatment, necropsy at week 10 (n=3) • 4. PMPA+RDP58 treatment, necropsy at week 10 (n=3) • 5. PMPA treatment, necropsy at week 26 (n=3) • 6. PMPA+RDP58 treatment, necropsy at week 26 (n=3)
PMPA treatment was initiated at 6 weeks post-infection and was administered at 30 mg/kg, I.V. RDP58 was administered orally, dissolved in drinking water, at 2 mg/kg, 3×/week.
Jejunal biopsies and peripheral blood samples were obtained from all animals prior to infection and at 2 weeks, 6 weeks, 10 weeks, 16 weeks and 26 weeks post-infection and at necropsy. Jejunal biopsies was obtained using a pediatric gastroscope.
Jejunal pinch biopsy samples were incubated RPMI 1640 (Gibco) and collagenase (Sigma) at 37° C. and rapidly shaken for 45 minutes then subjected to Percoll (Sigma) density gradient centrifugation to enrich for T cells and eliminate tissue debris. Cells were then washed with PBS (Gibco) and allowed to equilibrate over night at 37° C. and 5% CO2 in complete RPMI 1640 (containing 10% fetal calf sera, penicillin and streptomyicin). Cells were stained for three-color flow cytometric analysis with CD3FITC, CD4PE, CD8PE, CD45RA (BD Pharmingen), CD8TC, CD69TC, CD28TC, CD25PE (Caltag). All cells were fixed in 1% paraformaldehyde in PBS and read on a Bectin Dickenson FacScan within 3 hours of staining. Flow data was analyzed using Bectin Dickenson CellQuest softwear.
(In general: Flow cytometry measures light scatter and fluorescence of single cells or particles in a stream.)

In a further assay the test system is SIVmac251. Nature of the assay: Plasma viral load (real time RT-PCR of SIV RNA) in SIV-infected rhesus macaques. Format: in vivo, rhesus macaques (Macaca mulatta).
Source text: as §1, with “PMPA+RDP58 treatment, necropsy at week 26 (n=3)” left out
Primers and probes specific to the SIV RNA sequence were designed and used in the real time PCR reaction. […] The progress of the reaction is monitored through the fluorescence released by […] that is proportional to the product being formed. Thus the fluorescence intensity is directly related to the amount of input target RNA. The data was analyzed with Sequence Detector Software (SDS). […]

“Also recorded” adds a separate entry of the source.

Consider `C[C@H](Cn1cnc2c(N)ncnc21)OCP(=O)(O)O` [PMPA, 9-R-(2-phosphonomethoxypropyl)adenine], for which, in assay [1] (GALT and blood, treatment from week 6), the “CD3 gated CD4+ T cells after SIV-induced depletion” value is “reversal”. The “% CD3 gated CD8+ cells” value in assay [1] (by week 10) was “gradual decrease”. The “CD4+CD8+ double positive T cell counts in GALT” value in assay [1] (week 12, GALT) is “modest changes”. Moreover, the “plasma viral load (viral RNA copies/ml plasma)” value with SIVmac251 (therapy started at week 6 post infection, PMPA 30 mg/kg I.V.) was “gradual decrease in viral load”.

For the compound “Arg-nL-nL-nL-Arg-nL-nL-nL-Gly-Tyr [RDP58]”, the “stabilizing CD4+ T-cell population in GALT” value in assay [1] (GALT) is on record as “beneficial effects”. In the assay with SIVmac251 (RDP58 2 mg/kg orally 3x/week, alone or added to PMPA, 2 mg/kg), the “effect of RDP58 on suppression of viral loads by antiretroviral therapy” value is given as “no adverse effect; also recorded: did not interfere with or change the effect of antiretroviral therapy”.
